Data from article PMC10902301, “Interactions between the protein barnase and co-solutes studied by NMR” (Communications Chemistry, 2024).
Values joined by “and” are separate entries in the source; they are usually repeats but may differ in a detail not shown here. Equal entries are not always repeated. Structures can show the parent of a compound that is named as a salt.

Legend:
[1] = target: T1, barnase (Bacillus amyloliquefaciens, UniProt P00648, H149A); conditions: for binding to barnase (in words): from curvature of chemical shift profiles; for mL for amide protons (1HN), mean ± standard deviation over residues: single co-solute titration up to 1 M, 5 mM acetate pH 5.8
Description: (§1) For each titration point, protein 2D peak positions were measured and loaded into a database. […] We hypothesized that the hyperbolic parts indicate direct binding of the co-solute to the protein, while the linear parts represent indirect effects on the protein chemical shifts caused by interactions of the co-solute with the solvent, which thus leads to altered protein solvation. Linear changes in shift could also arise from co-solute-induced conformational changes in the protein. […] We therefore fitted the data to a sum of two equations: a hyperbolic curve plus a linear change. Fitting to the hyperbolic curve gives a resultant binding affinity, which can be tabulated as either a dissociation constant Kd (with units of concentration) or an association constant Ka (with units of reciprocal concentration). […] Thus in the analysis below, we use Ka when examining binding to the protein surface. We note that the linear change is in fact a binding curve with very weak affinity, and will therefore start to curve at some point. Based on the likely affinities, curvature is unlikely to become apparent until the co-solute reaches a concentration of several M.
(§2) For fitting shift changes to obtain the dissociation constant, one would normally use a quadratic equation[36]:1 Δδobs=Δδmax{([P]i+[L]i+Kd)–[([P]i+[L]i+Kd)^2−4[P]i[L]i]^1/2}/2[P]I
(§3) We have therefore used it throughout. The complete equation used here for fitting the experimental shift changes is therefore3 Δδobs=Δδmax.Li/Kd+Li+mLLi which gives three fitted values for each nucleus: Kd, Δδmax, and mL. mL is the gradient of the linear component, and gives information on the indirect effect of the co-solute on protein chemical shifts via its effect on solvent. […] We discuss later the significance of mL: for present purposes, it is an empirical parameter that describes how the co-solute affects the protein indirectly via solvent.
(§4) For these reasons, all experiments were carried out using 5 mM acetate, pH 5.8, conditions that gave reproducible peak positions while using only a very low concentration of additional solutes.
(§5) Chemical shifts of ^1HN, ^15N, and ^13C’ were measured and fitted to Eq. (3).

[2] = test system: protein surfaces; conditions: molecular dynamics; ref Vrbka et al J Phys Chem B 2006 110:7036-7043; cited from earlier work
[3] = target: T1, barnase; assay: biochemical; conditions: average dissociation constant Kd at thiocyanate binding region, residues 35–46, 81–86; single binding site assumed; pH 5.8
Description: as §1, §2, §3, §4, §5

T1 sequence (P00648 48-157 H149A): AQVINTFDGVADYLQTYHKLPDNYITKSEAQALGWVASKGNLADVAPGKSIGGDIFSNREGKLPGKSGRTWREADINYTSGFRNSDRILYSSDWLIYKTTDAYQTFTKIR

Row | SMILES | binding to barnase (in words) [1] | mL for amide protons (1HN), mean ± standard deviation over residues [1] | contact times with protein surfaces in water [2] | average Ka over all nuclei ([1]; osmolyte titrations, average over residues that could be fitted) | Kd [3] | average Ka ([1]; average over binding-site residues 35–46 and 81–86, 1HN, 15N, 13C' nuclei)
1 | CC1=N[C@H](C(=O)O)CCN1 [ectoine] | very little binding | +16.5 ± 21.3 ppb/M | – | – | – | –
2 | Cl [chloride, sodium chloride] | overall weaker binding | –16 ± 26 ppb/M | 0.1-0.8 ns | – | – | –
3 | C[N+](C)(C)CC(=O)O [betaine, N-trimethyl glycine] | no binding | +4.3 ± 15.9 ppb/M | – | no evidence of any binding | – | –
4 | C[N+](C)(C)[O-] [TMAO, trimethylamine N-oxide] | only very weak binding | +9.7 ± 16.9 ppb/M | – | – | – | –
5 | O=S(=O)(O)O [sulfate, sodium sulfate] | – | – | 0.1-0.8 ns | – | – | –
6 | N#CS [thiocyanate, sodium thiocyanate] | – | –51 ± 51 ppb/M | – | – | 22 mM and ~22 mM | about 45 M^−1
